Data published in US20260217768A1, “NANOPARTICLE-NHE3 PEPTIDE TO TREAT DIARRHEA” (The Johns Hopkins University, priority 2023, published 2026).

Tests used:
mouse jejunum = conditions: in vivo
NHE3 = NHE3 activity in differentiated human enteroid monolayers after nanoparticle delivery of peptide; format: cell-based
Experimental: NHE3 activity in PS120, Caco-2/BBe cells and human jejunal enteroids was determined fluorometrically (Photon Technologies Incorporated) using the intracellular pH sensitive dye BCECF, as reported (Levine et al., 1993; Sarker et al., 2008; Foulke-Abel et al., 2020). PS120/HA3-NHE3 cells were seeded on glass cover slips and studied at 70-80% confluency. Caco-2/BBe/HA3-NHE3 cells were grown to confluency on Transwell inserts (polyester, 0.4-μm pore size) and studied approximately 14-16 days pod. Human duodenal enteroid monolayers on Transwell inserts were differentiated for 5 days in the absence of Wnt3a, R-spondin, and noggin as described (Noel et al., 2017; Staab et al., 2020).
Rates of Na^+/H^+ exchange were determined as Na^+-dependent alkalinization in the presence of 50-μM HOE-694 (to inhibit all other plasma membrane NHE isoforms) in HCO3-free solutions, with internal calibration using the nigericin/K+ method, as previously described (Sarker et al., 2008; Foulke-Abel et al., 2020). Kinetic analysis was used for PS120 cell studies (expressed as Vmax) and initial rates (ΔpH/min) for Caco-2/BBe cells, mouse intestine in vitro, and human enteroids. For in vitro mouse jejunal transport studies, NHE3 activity (in the presence of 50-μM HOE-694) was measured using SNARF-4F at 37° C. in a perfusion chamber using a two-photon microscope (Olympus FV1000) and 25× objective, as described (Murtazina et al., 2011).
PBAE polymer and peptide were separately dissolved in pH 7.4 150-mM PBS and combined at a 1:1 volume ratio. Final concentrations of the components were 6-ng/μL peptide and 180-ng/μL polymer (30:1 polymer: peptide weight ratio). Polymer and peptide nanoparticles were allowed to self-assemble at room temperature for 10 minutes. For characterization, nanoparticles were diluted 1:5 in PBS. Hydrodynamic diameter and zeta potential were measured using a Malvern Zetasizer Pro (Malvern Panalytical, Malvern, UK). Stability was assessed by incubating nanoparticles at RT up to 45 minutes then measuring hydrodynamic diameter over 45 minutes. […]

mouse ileal loops = assay: CTx-induced fluid secretion in closed mouse ileal loops, nanoparticle-conjugated peptides; format: in vivo
Experimental: All in vivo studies were performed on 8-12 week old C57B1/6N mice anesthetized with isofluorane and kept at 37° C. via heating lamps and rectal thermal probes.
Effect on basal fluid transport and effect of Tenapanor. Mice operated on as above had 3-4 cm closed ileal loops inoculated with 150-μL PBS containing 400-nM nanoparticle-CP-2 or -N3SP-1Δ7. After 4 h, the loops were drained and inoculated with 150-μL PBS. 30 min later, the animals were sacrificed and loop weight/length determined. In parallel studies, Tenapanor (10 μM) was present in both incubation periods. Similar to the BODIPY-conjugated peptide studies, the effects of nanoparticle-CP-2 or N3SP-1Δ7 (4 μM) compared to PBS alone were determined on net fluid secretion produced by inoculation of 0.1-μg CTx. The nanoparticle-peptides plus 0.1-μg CTx in 150-μL PBS were inoculated in 3-4 cm long closed ileal loops. Additional controls included loops exposed only to 150-μL PBS and those only exposed to the CTx/PBS. 4 h later, the animals were sacrificed and loop weight/cm length was determined.

[1] = molecular target: NHERF2 binding to NHE3 C-terminal peptides (Homo sapiens, UniProt Q15599); assay: NHE3 peptide-NHERF2 overlay assay; conditions: peptide at 5 times the concentration of NHERF2 and MBP-NHE3 fusion peptides, n=5
Sequence of NHERF2 binding to NHE3 C-terminal peptides (Q15599 whole entry, the tested form may be a part): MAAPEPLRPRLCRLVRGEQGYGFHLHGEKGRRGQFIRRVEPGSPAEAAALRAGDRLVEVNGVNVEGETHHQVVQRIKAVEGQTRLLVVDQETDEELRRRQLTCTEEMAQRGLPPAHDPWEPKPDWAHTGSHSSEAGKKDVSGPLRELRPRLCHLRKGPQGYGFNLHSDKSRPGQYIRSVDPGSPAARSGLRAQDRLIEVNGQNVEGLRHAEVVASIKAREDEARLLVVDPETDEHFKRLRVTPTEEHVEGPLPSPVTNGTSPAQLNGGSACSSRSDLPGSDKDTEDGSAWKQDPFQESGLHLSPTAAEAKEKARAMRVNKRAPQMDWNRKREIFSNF
Experimental: Two NHE3 C-terminal peptides containing the N3SP-1 sequence were separated on SDS-Page gradient gels and purified NHERF binding determined. Equal concentrations of NHE3 peptides and NHERF2 were used. Prior to NHERF2 addition, the blots were overlayed with 5× the concentration of N3SP-1Δ7 vs CP2.
Binding of purified full-length GST-NHERF2 to two NHE3 C-terminal peptides that contain the N3SP-1 sequence was determined in the presence of equal concentrations of CP-2 compared to N3SP-1Δ7. CP-2 and N3SP-1Δ7 peptides were used at 5 times the concentration of the NHERF2 fusion protein and the MBP-NHE3 fusion peptides.

[2] = Nanoparticle characterization: hydrodynamic diameter, zeta potential, stability; format: physicochemical; conditions: CR5 with peptide, 30:1 polymer:peptide weight ratio
Experimental: PBAE polymer and peptide were separately dissolved in pH 7.4 150-mM PBS and combined at a 1:1 volume ratio. Final concentrations of the components were 6-ng/μL peptide and 180-ng/μL polymer (30:1 polymer: peptide weight ratio). Polymer and peptide nanoparticles were allowed to self-assemble at room temperature for 10 minutes. For characterization, nanoparticles were diluted 1:5 in PBS. Hydrodynamic diameter and zeta potential were measured using a Malvern Zetasizer Pro (Malvern Panalytical, Malvern, UK). Stability was assessed by incubating nanoparticles at RT up to 45 minutes then measuring hydrodynamic diameter over 45 minutes. Nanoparticles were made immediately prior to each experiment.

[3] = system: differentiated human enteroid monolayers; assay: Nanoparticle-peptide uptake in human enteroid monolayers (confocal microscopy); format: cell-based; conditions: apical addition, 2 μM, 4 h uptake, differentiated human enteroids
Experimental: […] After varying times from 15 min to 4 hours, enteroids were washed three times with PBS to remove extracellular nanoparticles and wells were replenished with fresh serum-containing media.
At varying times after nanoparticle addition up to overnight, enteroids were serum-starved for 2 hours then fixed in 4% paraformaldehyde for 30 minutes. After washing with PBS, formaldehyde was neutralized with 20-mM glycine. Enteroids were then permeabilized in 0.1% saponin, 1% BSA for 30 minutes. Fixed and permeabilized enteroids were stained for biotinylated peptide using streptavidin conjugated AlexaFluor 488 (1:100) and Hoechst stain (1:200). Enteroids were thoroughly washed with PBS and mounted onto microscope slides. Uptake was visualized using an Olympus FV3000RS confocal microscope and 40× objective (Olympus, Tokyo, Japan).

## N3SP-1 lacking first seven N-terminal amino acids: RPSTVEASVSYLLRESASAVCLDMQSLEQRR [Peptide N3SP-1Δ7]
Mouse jejunum
  effect on CTx-stimulated net fluid secretion (loop weight/cm): did not alter the efficacy
NHE3; nanoparticles (250 nM) 18 h, FSK exposure, n=4
  NHE3 activity after FSK, % of same peptide without FSK: 88.0%
NHE3; nanoparticles added apically (250 nM) for 18 h, n=4, p=0.043
  increase of basal NHE3 activity compared to CP-2: 36.0%
Mouse ileal loops; mouse, in vivo
  reduction of cholera toxin induced secretion: approximately 42%
Mouse ileal loops; nanoparticle-peptide 4 μM with 0.1-μg CTx, 4 hours
  effect on CTx-induced fluid in ileal loops (loop weight/length): significantly less fluid
[1]
  NHERF2 binding to NHE3 C-terminal peptides compared to control peptide CP-2: preferentially reduces NHERF2 binding
[1]; listed as N3SP-147
  NHERF2 binding to NHE3 C-terminal peptides compared to control peptide CP-2: significantly reduced NHERF2 binding
[2]
  surface zeta potential (electrophoretic light scattering): 22.4±1.2 mV
[2]; aqueous
  nanoparticle diameter (DLS): 385±30 nm
[3]
  uptake and location in enteroid monolayers: lack of uptake
